From patent US12398107B2, “Fungicidal nitroanilino substituted pyrazoles” (FMC Corporation, priority 2018, dated 2025)

What was measured:
Format in all cases: in vivo
Septoria tritici = test: Test A: wheat leaf blotch, preventive spray on wheat seedlings; conditions: 50 ppm, 100 = 100% disease control, 0 = no control relative to controls
Description: (§1) General protocol for preparing test suspensions for Tests A-F: the test compounds were first dissolved in acetone in an amount equal to 3% of the final volume and then suspended at the desired concentration (in ppm) in acetone and purified water (50/50 mix by volume) containing 250 ppm of the surfactant PEG400 (polyhydric alcohol esters). The resulting test suspensions were then used in Tests A-F. The test solution was sprayed to the point of run-off on wheat seedlings. The following day the seedlings were inoculated with a spore suspension of Septoria tritici (the causal agent of wheat leaf blotch) and incubated in a saturated atmosphere at 24° C. for 48 h, and then moved to a growth chamber at 20° C. for 17 days, after which time disease ratings were made. A rating of 100 indicates 100% disease control and a rating of 0 indicates no disease control (relative to the controls). A dash (-) indicates the compound was not tested.

[1] = system: Puccinia recondita f. sp. tritici; test: Test B: wheat leaf rust, preventive spray on wheat seedlings; conditions: 50 ppm, 100 = 100% disease control, 0 = no control relative to controls
Description: as §1, with “Puccinia recondita f. sp.” for “Septoria”, “rust)” for “blotch)”, “20°” for “24°”, “24” for “48”, “7” for “17”

[2] = system: Blumeria graminis f. sp. tritici; test: Test C: wheat powdery mildew, preventive spray on wheat seedlings; conditions: 50 ppm, rated after 8 days, 100 = 100% disease control, 0 = no control
Description: General protocol for preparing test suspensions for Tests A-F: the test compounds were first dissolved in acetone in an amount equal to 3% of the final volume and then suspended at the desired concentration (in ppm) in acetone and purified water (50/50 mix by volume) containing 250 ppm of the surfactant PEG400 (polyhydric alcohol esters). The resulting test suspensions were then used in Tests A-F. The test suspension was sprayed to the point of run-off on wheat seedlings. The following day the seedlings were inoculated with a spore dust of Blumeria graminis f. sp. tritici, (also known as Erysiphe graminis f. sp. tritici, the causal agent of wheat powdery mildew) and incubated in a growth chamber at 20° C. for 8 days, after which time visual disease ratings were made. A rating of 100 indicates 100% disease control and a rating of 0 indicates no disease control (relative to the controls). A dash (-) indicates the compound was not tested.

Phakopsora pachyrhizi = test: Test D: Asian soybean rust, preventive spray on soybean seedlings; conditions: 50 ppm, 100 = 100% disease control, 0 = no control
Description: General protocol for preparing test suspensions for Tests A-F: the test compounds were first dissolved in acetone in an amount equal to 3% of the final volume and then suspended at the desired concentration (in ppm) in acetone and purified water (50/50 mix by volume) containing 250 ppm of the surfactant PEG400 (polyhydric alcohol esters). The resulting test suspensions were then used in Tests A-F.
The test solution was sprayed to the point of run-off on soybean seedlings. The following day the seedlings were inoculated with a spore suspension of Phakopsora pachyrhizi (the causal agent of Asian soybean rust) and incubated in a saturated atmosphere at 22° C. for 24 h and then moved to a growth chamber at 22° C. for 8 days, after which time visual disease ratings were made.
A rating of 100 indicates 100% disease control and a rating of 0 indicates no disease control (relative to the controls). A dash (-) indicates the compound was not tested.

Botrytis cinerea = test: Test E: tomato Botrytis, preventive spray on tomato seedlings; conditions: 50 ppm, 100 = 100% disease control, 0 = no control
Description: (§2) General protocol for preparing test suspensions for Tests A-F: the test compounds were first dissolved in acetone in an amount equal to 3% of the final volume and then suspended at the desired concentration (in ppm) in acetone and purified water (50/50 mix by volume) containing 250 ppm of the surfactant PEG400 (polyhydric alcohol esters). The resulting test suspensions were then used in Tests A-F. The test suspension was sprayed to the point of run-off on tomato seedlings. The following day the seedlings were inoculated with a spore suspension of Botrytis cinerea (the causal agent of tomato Botrytis) and incubated in a saturated atmosphere at 20° C. for 48 h, and then moved to a growth chamber at 24° C. for 3 days, after which time visual disease ratings were made. A rating of 100 indicates 100% disease control and a rating of 0 indicates no disease control (relative to the controls). A dash (-) indicates the compound was not tested.

Alternaria solani = test: Test F: tomato early blight, preventive spray on tomato seedlings; conditions: 50 ppm, 100 = 100% disease control, 0 = no control
Description: as §2, with “Alternaria solani” for “Botrytis cinerea”, “early blight)” for “Botrytis)”, “27°” for “20°”, “20°” for “24°”

Structure (SMILES)	Test A disease control rating (wheat leaf blotch) (Septoria tritici)	Test B disease control rating (wheat leaf rust) [1]	Test C disease control rating (wheat powdery mildew) [2]	Test D disease control rating (Asian soybean rust) (Phakopsora pachyrhizi)	Test E disease control rating (tomato Botrytis) (Botrytis cinerea)	Test F disease control rating (tomato early blight) (Alternaria solani)
Cc1nn(C)c(Nc2ccccc2[N+](=O)[O-])c1-c1c(F)cc(F)cc1Cl [Compound 148]	100%	99%	98%	13%	99%	100%
COc1cc(F)c(Nc2c(-c3c(F)cccc3F)c(C)nn2C)c([N+](=O)[O-])c1 [Compound 97]	100%	100%	100%	96%	100%	99%
CCc1nn(C)c(Nc2ccc(C)cc2[N+](=O)[O-])c1-c1ccc(F)cc1Cl [Compound 174]	100%	95%	92%	0%	99%	39%
Cc1nn(C)c(Nc2ccccc2[N+](=O)[O-])c1-c1c(F)cc(F)cc1F [Compound 149]	100%	80%	97%	0%	99%	96%
CCn1nc(C)c(-c2ccc(F)cc2Cl)c1Nc1c(F)cccc1[N+](=O)[O-] [Compound 71]	100%	100%	99%	82%	99%	98%
Cc1nn(C)c(Nc2ccc(Br)cc2[N+](=O)[O-])c1-c1ccc(F)cc1Cl [Compound 91]	99%	88%	84%	0%	99%	26%
COc1cc(F)c(-c2c(C)nn(C)c2Nc2ccc(OC)cc2[N+](=O)[O-])c(F)c1 [Compound 161]	100%	100%	100%	0%	100%	99%
Cc1nn(C)c(Nc2c(Cl)cc(F)cc2[N+](=O)[O-])c1-c1ccc(F)cc1F [Compound 67]	100%	100%	89%	69%	98%	33%
Cc1nn(C)c(Nc2c(F)cc(Cl)cc2[N+](=O)[O-])c1-c1c(F)cccc1F [Compound 98]	100%	97%	93%	0%	99%	98%
COc1cc(F)c(Nc2c(-c3ccc(C#N)cc3Cl)c(C)nn2C)c([N+](=O)[O-])c1 [Compound 166]	99%	100%	98%	98%	99%	100%
CCc1nn(C)c(Nc2c(Cl)cccc2[N+](=O)[O-])c1-c1ccc(F)cc1F [Compound 17]	100%	92%	94%	0%	99%	9%
Cc1nn(C)c(Nc2c(Cl)cc(Cl)cc2[N+](=O)[O-])c1-c1ccc(Cl)cc1Cl [Compound 146]	97%	98%	0%	0%	0%	40%
Cc1ccc(Nc2c(-c3ccc(F)cc3Cl)c(C)nn2C)c([N+](=O)[O-])c1 [Compound 26]	100%	99%	94%	77%	100%	68%
CCc1nn(C)c(Nc2c(F)cccc2[N+](=O)[O-])c1-c1c(F)cc(Cl)cc1F [Compound 170]	100%	99%	99%	0%	100%	99%
Cc1nn(C)c(Nc2c(Cl)cc(Cl)cc2[N+](=O)[O-])c1-c1c(F)cccc1F [Compound 96]	100%	95%	0%	0%	80%	0%
Cc1nn(C)c(Nc2c(F)cccc2[N+](=O)[O-])c1-c1ccc(Cl)cc1F [Compound 12]	100%	99%	81%	0%	97%	53%
Cc1nn(C)c(Nc2c(Cl)cccc2[N+](=O)[O-])c1-c1c(F)cc(F)cc1Cl [Compound 152]	99%	100%	98%	91%	99%	92%
